Like-named read-outs stand apart in the source and are kept apart here.
Columns and labels:
11β-hsd-1 enzyme [1] = target: T1, 11β-hsd-1 enzyme (Homo sapiens, UniProt P28845); test: 11β-hsd-1 enzyme assay, percentage of inhibition (3H-cortisone to cortisol, radio-HPLC); format: biochemical; details: read-out: % inh @ 0.1 uM
11β-hsd-1 enzyme [2] = target: T1, 11β-hsd-1 enzyme; test: 11β-hsd-1 enzyme assay, Kiapp determination (3H-cortisone to cortisol, radio-HPLC); format: biochemical; details: read-out: Ki app

T1 sequence (P28845 whole entry, species assumed): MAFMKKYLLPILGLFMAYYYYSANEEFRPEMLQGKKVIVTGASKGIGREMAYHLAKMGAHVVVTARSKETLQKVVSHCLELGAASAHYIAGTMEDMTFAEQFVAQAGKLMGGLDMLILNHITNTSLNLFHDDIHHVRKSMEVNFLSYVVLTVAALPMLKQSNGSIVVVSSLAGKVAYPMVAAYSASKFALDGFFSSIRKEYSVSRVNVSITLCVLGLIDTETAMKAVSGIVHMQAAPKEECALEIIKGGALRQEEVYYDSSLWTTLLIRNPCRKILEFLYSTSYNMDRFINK

| inhibition at 0.1 µM (11β-hsd-1 enzyme [1]; 0.1 uM) [%] | Ki (11β-hsd-1 enzyme [2]) [nM] | inhibition at 0.1 µM (11β-hsd-1 enzyme [1]; compound at 0.1 uM) [%] | Ki (11β-hsd-1 enzyme [2]; apparent Ki, 11β-hsd-1 enzyme) [nM] | SMILES |
| --- | --- | --- | --- | --- |
| 95 | 12 |  |  | Cc1cccc(NS(=O)(=O)c2ccc(-c3ccccc3)cc2C)n1 [Example 166] |
| 100 | 36 |  |  | Cc1cccc(NS(=O)(=O)c2ccc(-c3ccc(Cl)cc3Cl)cc2C)n1 [Example 167] |
| 96 | 2.8 |  |  | Cc1cccc(NS(=O)(=O)c2ccc(-c3ccc(Cl)cc3)cc2C)n1 [Example 168] |
| 93 | 19 |  |  | COc1ccc(-c2ccc(S(=O)(=O)Nc3cccc(C)n3)c(C)c2)cc1 [Example 169] |
| 93 | 8.1 |  |  | Cc1cccc(NS(=O)(=O)c2ccc(-c3ccc(F)c(Cl)c3)cc2C)n1 [Example 170] |
| 93 | 6.9 |  |  | Cc1ccc(-c2ccc(S(=O)(=O)Nc3cccc(C)n3)c(C)c2)cc1 [Example 171] |
| 82 | 48 |  |  | Cc1cccc(NS(=O)(=O)c2ccc(-c3ccccc3C)cc2C)n1 [Example 172] |
| 97 | 9.6 |  |  | Cc1cccc(NS(=O)(=O)c2ccc(-c3cccc(F)c3)cc2C)n1 [Example 173] |
| 98 | 3.2 |  |  | Cc1cccc(NS(=O)(=O)c2ccc(-c3cc(Cl)cc(Cl)c3)cc2C)n1 [Example 174] |
| 100 | 5.2 |  |  | Cc1cccc(NS(=O)(=O)c2ccc(-c3ccc(Cl)c(Cl)c3)cc2C)n1 [Example 176] |
| 85 | 20 |  |  | Cc1cccc(NS(=O)(=O)c2ccc(-c3cccc(C#N)c3)cc2C)n1 [Example 177] |
| 95 | 8.2 |  |  | Cc1cccc(NS(=O)(=O)c2ccc(-c3cc(F)cc(F)c3)cc2C)n1 [Example 178] |
| 95 | 6.2 |  |  | Cc1cccc(NS(=O)(=O)c2ccc(-c3ccc(F)cc3F)cc2C)n1 [Example 179] |
| 65 | 75 |  |  | Cc1cccc(NS(=O)(=O)c2ccc(-c3ccc(CO)cc3)cc2C)n1 [Example 180] |
| 83 | 53 |  |  | Cc1cccc(NS(=O)(=O)c2ccc(-c3ccccc3O)cc2C)n1 [Example 181] |
| 79 | 23 |  |  | COc1ccc(-c2ccc(S(=O)(=O)Nc3cccc(C)n3)c(C)c2)cc1OC [Example 182] |
| 91 | 14 |  |  | Cc1cccc(NS(=O)(=O)c2ccc(-c3ccc(F)c(C)c3)cc2C)n1 [Example 183] |
| 97 | 12 |  |  | Cc1cccc(NS(=O)(=O)c2ccc(-c3cc(F)c(F)c(F)c3)cc2C)n1 [Example 184] |
| 71 | 46 |  |  | Cc1cccc(NS(=O)(=O)c2ccc(-c3cccc(O)c3)cc2C)n1 [Example 185] |
| 95 | 9.3 |  |  | Cc1cccc(NS(=O)(=O)c2ccc(-c3ccccc3F)cc2C)n1 [Example 186] |
| 93 | 9.5 |  |  | COc1ccc(-c2ccc(S(=O)(=O)Nc3cccc(C)n3)c(C)c2)cc1F [Example 187] |
| 78 | 35 |  |  | Cc1cccc(NS(=O)(=O)c2ccc(-c3ccc(C(C)C)cc3)cc2C)n1 [Example 190] |
| 100 | 11 |  |  | CCc1ccc(-c2ccc(S(=O)(=O)Nc3cccc(C)n3)c(C)c2)cc1 [Example 191] |

| inhibition at 0.1 µM (11β-hsd-1 enzyme [1]; 0.1 uM) [%] | Ki (11β-hsd-1 enzyme [2]) [nM] | inhibition at 0.1 µM (11β-hsd-1 enzyme [1]; compound at 0.1 uM) [%] | Ki (11β-hsd-1 enzyme [2]; apparent Ki, 11β-hsd-1 enzyme) [nM] | SMILES |
| --- | --- | --- | --- | --- |
| 81 | 15 |  |  | CCOc1ccc(-c2ccc(S(=O)(=O)Nc3cccc(C)n3)c(C)c2)cc1 [Example 192] |
| 78 | 39 |  |  | Cc1cccc(NS(=O)(=O)c2ccc(-c3cccc(C(C)C)c3)cc2C)n1 [Example 193] |
| 82 | 17 |  |  | Cc1cccc(NS(=O)(=O)c2ccc(-c3ccccc3C#N)cc2C)n1 [Example 195] |
| 90 | 7.1 |  |  | Cc1cccc(NS(=O)(=O)c2ccc(-c3cccc(Cl)c3Cl)cc2C)n1 [Example 196] |
|  |  | 89 | 29 | Cc1cccc(NS(=O)(=O)c2ccc(-c3cccc(C)c3C)cc2C)n1 [Example 197] |
|  |  | 100 | 7.5 | Cc1cccc(NS(=O)(=O)c2ccc(-c3cccc(F)c3F)cc2C)n1 [Example 198] |
|  |  | 88 | 21 | Cc1cccc(NS(=O)(=O)c2ccc(-c3ccc(S(C)(=O)=O)cc3)cc2C)n1 [Example 200] |
|  |  | 75 | 43 | CCc1ccccc1-c1ccc(S(=O)(=O)Nc2cccc(C)n2)c(C)c1 [Example 201] |
|  |  | 88 | 14 | Cc1cccc(NS(=O)(=O)c2ccc(-c3cc(F)ccc3F)cc2C)n1 [Example 202] |
|  |  | 86 | 19 | CCS(=O)(=O)c1ccc(-c2ccc(S(=O)(=O)Nc3cccc(C)n3)c(C)c2)cc1 [Example 203] |
|  |  | 85 | 10 | Cc1cccc(NS(=O)(=O)c2ccc(-c3ccc(F)cc3C)cc2C)n1 [Example 204] |
|  |  | 86 | 19 | COc1ccc(-c2ccc(S(=O)(=O)Nc3cccc(C)n3)c(C)c2)cc1C [Example 205] |
|  |  | 87 | 20 | Cc1cccc(NS(=O)(=O)c2ccc(-c3ccc4c(c3)OCCO4)cc2C)n1 [Example 206] |
|  |  | 95 | 6.7 | Cc1cccc(NS(=O)(=O)c2ccc(-c3ccc(F)c(F)c3)cc2C)n1 [Example 208] |
|  |  | 88 | 18 | CCCCc1ccc(-c2ccc(S(=O)(=O)Nc3cccc(C)n3)c(C)c2)cc1 [Example 209] |
|  |  | 74 | 47 | Cc1cccc(NS(=O)(=O)c2ccc(-c3ccc(CC(C)C)cc3)cc2C)n1 [Example 210] |
|  |  | 81 | 23 | Cc1cccc(NS(=O)(=O)c2ccc(-c3ccc4c(c3)CCO4)cc2C)n1 [Example 211] |
|  |  | 75 | 47 | Cc1cccc(NS(=O)(=O)c2ccc(-c3ccccc3Cl)c(C)c2)n1 [Example 212] |
|  |  | 77 | 31 | Cc1cccc(NS(=O)(=O)c2ccc(-c3cccc(Cl)c3)c(C)c2)n1 [Example 213] |
|  |  | 72 | 36 | Cc1cccc(NS(=O)(=O)c2ccc(-c3ccccc3)c(C)c2)n1 [Example 214] |
|  |  | 90 | 16 | Cc1ccc(-c2ccc(S(=O)(=O)Nc3cccc(C)n3)cc2C)cc1 [Example 215] |
|  |  | 73 | 43 | COc1ccc(-c2ccc(S(=O)(=O)Nc3cccc(C)n3)cc2C)cc1 [Example 216] |
|  |  | 95 | 5 | Cc1cccc(NS(=O)(=O)c2ccc(-c3ccc(Cl)cc3)c(C)c2)n1 [Example 217] |

| inhibition at 0.1 µM (11β-hsd-1 enzyme [1]; 0.1 uM) [%] | Ki (11β-hsd-1 enzyme [2]) [nM] | inhibition at 0.1 µM (11β-hsd-1 enzyme [1]; compound at 0.1 uM) [%] | Ki (11β-hsd-1 enzyme [2]; apparent Ki, 11β-hsd-1 enzyme) [nM] | SMILES |
| --- | --- | --- | --- | --- |
|  |  | 68 | 17 | Cc1cccc(NS(=O)(=O)c2ccc(-c3ccc(F)c(Cl)c3)c(C)c2)n1 [Example 219] |
|  |  | 87 | 18 | Cc1cccc(NS(=O)(=O)c2ccc(-c3ccc(Cl)cc3Cl)c(C)c2)n1 [Example 221] |
|  |  | 90 | 10 | Cc1cccc(NS(=O)(=O)c2ccc(-c3cc(Cl)cc(Cl)c3)c(C)c2)n1 [Example 222] |
|  |  | 79 | 320 | Cc1cccc(NS(=O)(=O)c2ccc(-c3ccc(CO)cc3)c(C)c2)n1 [Example 223] |
|  |  | 93 | 19 | Cc1cccc(NS(=O)(=O)c2ccc(-c3cccc(F)c3)c(C)c2)n1 [Example 224] |
|  |  | 28 | 16 | Cc1cccc(NS(=O)(=O)c2ccc(-c3cc(F)cc(F)c3)c(C)c2)n1 [Example 225] |
|  |  | 94 | 460 | Cc1cccc(NS(=O)(=O)c2ccc(-c3cccc(CO)c3)c(C)c2)n1 [Example 226] |
|  |  | 74 | 29 | Cc1cccc(NS(=O)(=O)c2ccc(-c3cc(F)c(F)c(F)c3)c(C)c2)n1 [Example 228] |
|  |  | 78 | 660 | CCOc1ccccc1-c1ccc(S(=O)(=O)Nc2cccc(C)n2)cc1C [Example 232] |
|  |  | 78 | 110 | Cc1cccc(NS(=O)(=O)c2ccc(-c3ccc(C(C)C)cc3)c(C)c2)n1 [Example 233] |
|  |  | 81 | 110 | Cc1cccc(NS(=O)(=O)c2ccc(-c3cccc(C(C)C)c3)c(C)c2)n1 [Example 236] |
|  |  | 82 | 27 | Cc1cccc(NS(=O)(=O)c2ccc(-c3cccc(F)c3F)c(C)c2)n1 [Example 238] |
|  |  | 96 | 5.8 | Cc1cccc(NS(=O)(=O)c2ccc(-c3ccc(Cl)cc3)cc2)n1 [Example 249, 4′-Chloro-biphenyl-4-sulfonic acid (6-methyl-pyridin-2-yl)-amide] |
|  |  | 83.6 | 29 | Cc1cccc(NS(=O)(=O)c2ccc(-c3ccc(N4CCOCC4)cc3)cc2)n1 [Example 251] |
|  |  | 79.3 | 33.4 | Cc1cccc(NS(=O)(=O)c2ccc(-c3ccc(F)cc3C)cc2)n1 [Example 253] |
|  |  | 85.4 | 22.4 | CCOc1ccc(-c2ccc(S(=O)(=O)Nc3cccc(C)n3)cc2)c(C)c1 [Example 254] |
|  |  | 89.3 | 34.9 | COc1ccc(-c2ccc(S(=O)(=O)Nc3cccc(C)n3)cc2)cn1 [Example 256] |
|  |  | 74.7 | 120 | Cc1cccc(NS(=O)(=O)c2ccc(-c3ccncc3)cc2)n1 [Example 257] |
|  |  | 100 | 5.9 | COc1cc(S(=O)(=O)Nc2cccc(C)n2)ccc1-c1ccc(C#N)cc1 [Example 258] |
|  |  | 81.8 | 22.6 | Cc1cccc(NS(=O)(=O)c2ccc(-c3ccc(C#N)cc3)nc2)n1 [Example 267, 6-(4-Cyano-phenyl)-pyridine-3-sulfonic acid (6-methyl-pyridin-2-yl)-amide] |
|  |  | 70 | 40 | Cc1cccc(NS(=O)(=O)c2ccc(-c3ccc(F)cc3)nc2)n1 [Example 268] |
